The target of series [1] is nicotinic receptors containing the α7 subunit (Rattus norvegicus, UniProt Q05941). The series is described as follows: biochemical. Type of series: binding.
For series [2], the target named is nicotinic receptors containing the α4β2 subunit (Rattus norvegicus, UniProt P09483+P12390). The series is described as follows: Affinity for nicotinic receptors containing the α4β2 subunit, [3H]-cytisine binding to rat brain membranes. The note with it: read-out: Percentage of inhibition of the specific binding of [3H]-cytisine at a dose of 1 μM, for the α4β2 subunit. How it is done: The compounds of the invention were also studied as regards their affinity for nicotinic receptors containing the α4β2 subunit according to the methods described by Anderson and Arneric, Eur. J. Pharmacol (1994), 253, 261, and by Hall et al., Brain Res. (1993), 600, 127.
Male Sprague Dawley rats weighing 150 to 200 g are decapitated and the entire brain is removed quickly, homogenized in 15 volumes of 0.32 M sucrose solution at 4° C. and then centrifuged at 1000×g for 10 min. The pellet is discarded and the supernatant is centrifuged at 20 000×g for 20 min at 4° C. The pellet is recovered and homogenized using a Polytron™ mill in 15 volumes of double-distilled water at 4° C., followed by centrifugation at 8000×g for 20 min. The pellet is discarded and the supernatant and the buffy coat are centrifuged at 40 000×g for 20 min, the pellet is recovered, resuspended in 15 ml of double-distilled water and centrifuged again at 40 000×g, before being stored at −80° C.
On the day of the experiment, the tissue is thawed slowly and suspended in 3 volumes of buffer. 150 μl of this membrane suspension are incubated at 4° C. for 120 min in the presence of 100 μl of 1 nM [^3H]-cytisine in a final volume of 500 μl of buffer, in the presence or absence of test compound. The reaction is stopped by filtration on Whatman GF/B™ filters pretreated with polyethyleneimine, the filters are rinsed with 2×5 ml of buffer at 4° C. and the radioactivity retained on the filter is measured by liquid scintigraphy. The non-specific binding is determined in the presence of 10 μM (−)-nicotine; the non-specific binding represents […] of the total binding recovered on the filter. For each concentration of test compound, the percentage of inhibition of the specific binding of [^3H]-cytisine is determined, at doses of 1 μM and 10 μM. For the most affine compounds of the invention, the IC50 value is calculated, which is the concentration of compound that inhibits the specific binding by 50%.

The mark [3] stands for this setting: compound at 1 μM, 1 nM [3H]-cytisine, rat brain membranes.

Where a name gives a salt, the structure may show the parent alone. Read-outs that look alike come from different tables or passages of the source.

Chain of nicotinic receptors containing the α7 subunit (Q05941 23-502): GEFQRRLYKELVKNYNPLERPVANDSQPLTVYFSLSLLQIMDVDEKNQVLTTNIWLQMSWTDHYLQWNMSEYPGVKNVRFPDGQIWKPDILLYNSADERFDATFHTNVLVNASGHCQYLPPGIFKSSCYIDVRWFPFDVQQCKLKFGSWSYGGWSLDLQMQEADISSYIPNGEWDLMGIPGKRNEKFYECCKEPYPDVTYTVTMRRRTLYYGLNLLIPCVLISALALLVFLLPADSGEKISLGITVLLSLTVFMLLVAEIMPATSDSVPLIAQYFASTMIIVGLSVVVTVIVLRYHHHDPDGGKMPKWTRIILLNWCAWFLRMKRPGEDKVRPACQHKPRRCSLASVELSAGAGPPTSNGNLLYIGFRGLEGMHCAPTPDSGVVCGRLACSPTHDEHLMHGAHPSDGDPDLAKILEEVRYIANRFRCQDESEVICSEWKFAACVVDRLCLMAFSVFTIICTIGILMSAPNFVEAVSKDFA
Chain of nicotinic receptors containing the α4β2 subunit (P09483 31-630): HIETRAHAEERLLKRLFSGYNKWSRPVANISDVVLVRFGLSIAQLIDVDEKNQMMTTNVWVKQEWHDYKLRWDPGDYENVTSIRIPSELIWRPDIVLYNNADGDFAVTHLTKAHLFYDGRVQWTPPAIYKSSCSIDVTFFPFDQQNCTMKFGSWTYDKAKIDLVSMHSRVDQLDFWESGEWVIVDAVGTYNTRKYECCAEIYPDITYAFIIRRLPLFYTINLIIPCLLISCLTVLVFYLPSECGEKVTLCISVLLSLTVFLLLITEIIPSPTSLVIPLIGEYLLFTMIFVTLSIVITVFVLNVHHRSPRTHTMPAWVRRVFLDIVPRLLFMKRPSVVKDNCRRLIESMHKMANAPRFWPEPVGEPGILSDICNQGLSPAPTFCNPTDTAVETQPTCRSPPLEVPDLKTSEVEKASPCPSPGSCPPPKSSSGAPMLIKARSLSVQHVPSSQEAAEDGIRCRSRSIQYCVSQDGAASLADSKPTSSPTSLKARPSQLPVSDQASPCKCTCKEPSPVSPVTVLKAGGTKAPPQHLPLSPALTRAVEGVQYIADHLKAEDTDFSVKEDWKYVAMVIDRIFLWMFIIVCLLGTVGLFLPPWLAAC
Chain of nicotinic receptors containing the α4β2 subunit (P12390 25-500): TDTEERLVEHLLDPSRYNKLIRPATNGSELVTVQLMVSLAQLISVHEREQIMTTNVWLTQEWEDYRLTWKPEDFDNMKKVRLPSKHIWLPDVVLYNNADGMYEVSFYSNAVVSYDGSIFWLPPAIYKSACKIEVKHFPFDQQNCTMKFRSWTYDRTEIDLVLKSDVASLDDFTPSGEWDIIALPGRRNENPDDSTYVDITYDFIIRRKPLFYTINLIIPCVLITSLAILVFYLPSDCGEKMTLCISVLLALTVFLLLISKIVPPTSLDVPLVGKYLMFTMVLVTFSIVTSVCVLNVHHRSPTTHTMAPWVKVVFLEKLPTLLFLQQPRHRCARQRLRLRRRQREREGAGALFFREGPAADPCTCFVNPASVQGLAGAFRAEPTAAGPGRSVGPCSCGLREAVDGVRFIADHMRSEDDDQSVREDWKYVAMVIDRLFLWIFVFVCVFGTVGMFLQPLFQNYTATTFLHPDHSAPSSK

By IC50 is commonly meant the concentration that gives 50% inhibition. One may read the inhibition as the percentage by which the read-out fell short of the control. `C1=CC2(c3ccc(-c4ncc[nH]4)nc3)CCN(C1)C2` (single isomer, unassigned) [Compound 14]: the IC50 in series [1] was found to be 99 nM. Further, the inhibition at 1 µM in series [2] (setting [3]) was 45%. `C1=CC2(c3ccc(-n4ccnc4)nc3)CCN(C1)C2` (single isomer, unassigned) [Compound 11]: the IC50 in series [1] (read-out: IC50 α7) was found to be 83 nM. In addition, the inhibition at 1 µM in series [2] turned out to be 36%. The term melting point denotes the temperature of the solid-liquid transition. As for `C1=CC2(c3ccc(-c4cc[nH]n4)nc3)CCN(C1)C2` (stereo not drawn) (as salt: HBr), the melting point is 273 to 275 °C. Still for that read-out and setting: as for `C1=CC2(c3ccc(-c4cscn4)nc3)CCN(C1)C2` (stereo not drawn) (as salt: HBr), the figure is 272 to 274 °C. Take `CC(C)Cn1cc(-c2ccc(C34C=CCN(CC3)C4)cn2)cn1` (stereo not drawn) (as salt: HBr): the melting point lay in the range of 104 to 106 °C. In series [1], `C1=CC2(c3ccc(-c4c[nH]cn4)nc3)CCN(C1)C2` (single isomer, unassigned) [Compound 9] gave an IC50 of 300 nM. The inhibition at 1 µM in series [2] (setting [3]) stood at 24%. `CCCn1cc(-c2ccc(C34C=CCN(CC3)C4)cn2)cn1` (stereo not drawn) (as salt: HBr) displayed a melting point of 190 to 192 °C. As to `C1=CC2(c3ccc(-c4ncc[nH]4)nc3)CCN(C1)C2` (single isomer, unassigned) (as salt: HBr) [Compound 14], the melting point was 234 to 236 °C. `Cn1cc(-c2ccc(C34CCCN(CC3)C4)cn2)cn1` (racemic) registered a melting point of 138 to 140 °C.

The values are drawn from patent US8541440B2 (priority 2005, dated 2013).
